Measurements reported in the supplement of paper PMC10307832.

Each cell line was assayed with COC1=CC=C(C=C1)COC2=C(C=C(C=C2)CC3=CN=C(N=C3N)N)OC [GW-2580] + C[C@@H](Oc1cc(-c2cnn(C3CCNCC3)c2)cnc1N)c1c(Cl)ccc(F)c1Cl [Crizotinib] (partner 1 µM) (assay: relative viability (nuclei count vs DMSO), 5 days (fraction); higher = more cells survive). Conditions: first compound 0.08 µM.
Outline: (§1)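 Relative viability is defined as nuclei in treated wells over nuclei in vehicle wells. Duplicate plates were run and medians reported. Lung cancer cell lines in 1536-well plates were dosed by pin tool one day after seeding, with one drug or with a fixed anchor-drug dose plus five library-drug doses (not always all listed) in √10 steps, and nuclei were counted after 5 days.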
Cell Line RERF-LC-KJ has a relative viability of 0.818. ABC-1 gave a relative viability of 1.1. For NCI-H358, the relative viability was 0.654. Cell Line NCI-H650 has a relative viability of 0.834. PC-3 [JPC-3] showed a relative viability of 0.985.

Same assay, conditions: first compound 0.8 µM
For RERF-LC-KJ, the relative viability was 0.915. In the case of ABC-1, the relative viability is reported as 1.3. NCI-H358 was tested, and the relative viability was 0.543. NCI-H650 was tested, and the relative viability was 0.663. In the case of PC-3 [JPC-3], the relative viability is reported as 1.08.

Same assay, conditions: first compound 2.53 µM
For RERF-LC-KJ, the relative viability was 0.778. With ABC-1 the relative viability was 0.901. NCI-H358 showed a relative viability of 0.554. NCI-H650 was tested, and the relative viability was 0.668. PC-3 [JPC-3] was tested, and the relative viability was 0.98.

Same assay, conditions: first compound 8 µM
RERF-LC-KJ showed a relative viability of 0.76. Work on ABC-1 yielded a relative viability of 0.783. With NCI-H358 the relative viability was 0.502. NCI-H650 was tested, and the relative viability was 0.594. PC-3 [JPC-3] showed a relative viability of 0.945.

Each cell line was assayed with COC1=CC=C(C=C1)COC2=C(C=C(C=C2)CC3=CN=C(N=C3N)N)OC [GW-2580] + C[C@]1(O)C[C@@H](c2nc(-c3ccc4ccc(-c5ccccc5)nc4c3)c3c(N)nccn32)C1 [Linsitinib] (partner 1 µM) in the same assay as above. Conditions: first compound 0.08 µM.
Outline: as §1
In the case of RERF-LC-KJ, the relative viability is reported as 0.946. ABC-1 gave a relative viability of 0.791. NCI-H358 showed a relative viability of 0.888. NCI-H650 gave a relative viability of 0.94. PC-3 [JPC-3] was tested, and the relative viability was 0.96.

Same assay, conditions: first compound 0.8 µM
RERF-LC-KJ was tested, and the relative viability was 0.939. With ABC-1 the relative viability was 0.816. Cell Line NCI-H358 has a relative viability of 0.849. Work on NCI-H650 yielded a relative viability of 1.02. For PC-3 [JPC-3], the relative viability was 0.995.

Same assay, conditions: first compound 2.53 µM
Work on RERF-LC-KJ yielded a relative viability of 0.816. ABC-1 showed a relative viability of 0.883. For NCI-H358, the relative viability was 0.707. NCI-H650 was tested, and the relative viability was 0.547. Work on PC-3 [JPC-3] yielded a relative viability of 0.966.

Same assay, conditions: first compound 8 µM
With RERF-LC-KJ the relative viability was 0.815. In the case of ABC-1, the relative viability is reported as 0.718. For NCI-H358, the relative viability was 0.684. With NCI-H650 the relative viability was 1.17. Work on PC-3 [JPC-3] yielded a relative viability of 0.967.

These cell lines were tested with COC1=CC=C(C=C1)COC2=C(C=C(C=C2)CC3=CN=C(N=C3N)N)OC [GW-2580] + Cc1nc(NC(=O)N2CCC[C@H]2C(N)=O)sc1-c1ccnc(C(C)(C)C(F)(F)F)c1 [Alpelisib] (partner 2 µM) in the same assay as above. Conditions: first compound 0.08 µM.
Outline: as §1
RERF-LC-KJ gave a relative viability of 0.771. ABC-1 gave a relative viability of 1.36. NCI-H358 showed a relative viability of 0.967. Work on NCI-H650 yielded a relative viability of 1.26. Work on PC-3 [JPC-3] yielded a relative viability of 1.05.

Same assay, conditions: first compound 0.8 µM
RERF-LC-KJ gave a relative viability of 0.803. ABC-1 was tested, and the relative viability was 0.944. NCI-H358 was tested, and the relative viability was 0.872. NCI-H650 showed a relative viability of 1.06. PC-3 [JPC-3] showed a relative viability of 1.09.

Same assay, conditions: first compound 2.53 µM
With RERF-LC-KJ the relative viability was 0.732. With ABC-1 the relative viability was 0.93. NCI-H358 was tested, and the relative viability was 0.851. In the case of NCI-H650, the relative viability is reported as 0.914. For PC-3 [JPC-3], the relative viability was 0.998.

Same assay, conditions: first compound 8 µM
Work on RERF-LC-KJ yielded a relative viability of 0.793. Work on ABC-1 yielded a relative viability of 0.891. In the case of NCI-H358, the relative viability is reported as 0.775. In the case of NCI-H650, the relative viability is reported as 1.14. Work on PC-3 [JPC-3] yielded a relative viability of 1.01.

What follows are cell lines tested with Cc1cnc(Nc2ccc(OCCN3CCCC3)cc2)nc1Nc1cccc(S(=O)(=O)NC(C)(C)C)c1 [Fedratinib] + CCNC(=O)c1noc(-c2cc(C(C)C)c(O)cc2O)c1-c1ccc(CN2CCOCC2)cc1 [Luminespib] (partner 0.01 µM) in the same assay as above. Conditions: first compound 0.1 µM.
Outline: as §1
RERF-LC-KJ showed a relative viability of 1.13. ABC-1 was tested, and the relative viability was 0.415. NCI-H358 was tested, and the relative viability was 0.578. Cell Line NCI-H650 has a relative viability of 0.706. PC-3 [JPC-3] showed a relative viability of 0.716.

Same assay, conditions: first compound 0.3162 µM
RERF-LC-KJ showed a relative viability of 1.24. Cell Line ABC-1 has a relative viability of 0.655. In the case of NCI-H358, the relative viability is reported as 0.2. NCI-H650 showed a relative viability of 0.733. With PC-3 [JPC-3] the relative viability was 0.793.

Same assay, conditions: first compound 1 µM
In the case of RERF-LC-KJ, the relative viability is reported as 1.17. ABC-1 showed a relative viability of 0.607. Cell Line NCI-H358 has a relative viability of 0.307. NCI-H650 showed a relative viability of 0.796. Cell Line PC-3 [JPC-3] has a relative viability of 0.642.

Each cell line was assayed with Cc1cnc(Nc2ccc(OCCN3CCCC3)cc2)nc1Nc1cccc(S(=O)(=O)NC(C)(C)C)c1 [Fedratinib] + COc1cccc2cc(-c3nc([C@H]4CC[C@H](C(=O)O)CC4)n4ncnc(N)c34)[nH]c12 [OSI-027] (partner 0.5 µM) in the same assay as above. Conditions: first compound 0.1 µM.
Outline: as §1
For RERF-LC-KJ, the relative viability was 0.533. ABC-1 showed a relative viability of 0.607. NCI-H358 showed a relative viability of 0.594. For NCI-H650, the relative viability was 0.456. With PC-3 [JPC-3] the relative viability was 0.776.

Same assay, conditions: first compound 0.3162 µM
In the case of RERF-LC-KJ, the relative viability is reported as 0.602. With ABC-1 the relative viability was 0.467. For NCI-H358, the relative viability was 0.892. NCI-H650 showed a relative viability of 0.469. Work on PC-3 [JPC-3] yielded a relative viability of 0.801.

Same assay, conditions: first compound 1 µM
For RERF-LC-KJ, the relative viability was 0.48. For ABC-1, the relative viability was 0.448. With NCI-H358 the relative viability was 0.47. NCI-H650 showed a relative viability of 0.454. PC-3 [JPC-3] gave a relative viability of 0.764.
